The values below come from patent US20130011473A1, “Preparation Method Of The Solid Formulation Of Clopidogrel Bisulfate” (priority 2010, published 2013).

Where a name gives a salt, the structure may show the parent alone. Read-outs that look alike come from different tables or passages of the source.

For one data set, the system named is phosphodiesterase. The settings on record: cited from earlier work.

Take `COC(=O)[C@H](c1ccccc1Cl)N1CCc2sccc2C1` [Clopidogrel]: the phosphodiesterase activity result in the data set on phosphodiesterase is “did not inhibit”.
Consider `COC(=O)[C@H](c1ccccc1Cl)N1CCc2sccc2C1` [Clopidgrel salt, methyl(+)-(S)-α(2-chlorophenyl)-6,7-dihydrothieno[3,2-c]pyridine-5(4H)-acetate sulfate (1:1)], for which the angle of repose is on record as 40 (after being mixed with Colloidal Silicon Dioxide) and “greater than 45” (as is).
